Test results published in patent US11713341B1, “Antimicrobial NCR13 variant peptides” (Vestaron Corporation, priority 2022, dated 2023).
Where a SMILES comes first, the peptide text is derived from it.

Tested on: Botrytis cinerea
Assay: Antimicrobial bioassay (Botrytis cinerea): growth inhibition by OD600
Type: cell-based
Settings: for anti-Botrytis activities relative to NCR13a: Botrytis cinerea growth, comparison with NCR13a; for Activity ratio to NCR13a: anti-Botrytis cinerea activity (IC50) relative to comparator NCR13a
Experimental: The antimicrobial effect of the NCR13 variant peptides (NVPs) of the present disclosure were evaluated against the fungal species, Botrytis cinerea. […] The growth of Botrytis cinerea was then assessed via OD600 nm after incubation with a given NVP at room temperature after 96 hours. The IC50 of each peptide analyzed is shown in ppm.
The antimicrobial effect of the NCR13 variant peptides (NVPs) of the present disclosure were evaluated against the fungal species, Botrytis cinerea. […] The growth of Botrytis cinerea was then assessed via OD600 nm after incubation with a given NVP at room temperature after 96 hours.
The NVPs assessed were as follows: NVPM3 (+L) (SEQ ID NO: 5); NVPM5 (+M) (SEQ ID NO: 7); NVPM6 (+F) (SEQ ID NO: 8); NVPM7 (+W) (SEQ ID NO: 9); NVPM9 (+S) (SEQ ID NO: 11); NVPM11 (+Y) (SEQ ID NO: 13); NVPM14 (+D) (SEQ ID NO: 16); and NVPM15 (+E) (SEQ ID NO: 17).
NVPs having an amino acid sequence of SEQ ID NOs: 5, 7, 8, 9, 11, 13, 16, and 17 were generated as described above in Example 1. The peptide, NCR13a, having an amino acid sequence of: […] (SEQ ID NO: 2) was selected as a comparator peptide, with which the antifungal activity of the foregoing NVPs was compared.
The fungal species was Botrytis cinerea was cultured in potato dextrose agar plates. Fungal spores were collected from the agar plates and suspended into de-ionized water, followed by enumeration in a Petroff-Hausser counting chamber (VWR).
The 96-well plates were incubated at room temperature for 96 hours without shaking. The OD600 of the culture plate was determined using SpectraMax plate reader. Relative OD600 was determined by normalizing cell growth to control wells containing neither NVPs nor NCR13a. The OD600 was used to determine IC50.

CC[C@H](C)[C@H](NC(=O)[C@H](CS)NC(=O)[C@H](CCCCN)NC(=O)[C@@H]1CCCN1C(=O)[C@@H](NC(=O)[C@H](CCCCN)NC(=O)[C@@H]1CCCN1C(=O)[C@H](CCCCN)NC(=O)[C@H](CCCNC(=N)N)NC(=O)[C@H](CS)NC(=O)[C@H](C)NC(=O)[C@H](Cc1ccccc1)NC(=O)[C@H](CCCCN)NC(=O)[C@H](CCCCN)NC(=O)[C@H](CS)NC(=O)[C@H](CC(=O)O)NC(=O)[C@H](CCCCN)NC(=O)[C@H](CC(=O)O)NC(=O)[C@H](CO)NC(=O)[C@H](CCC(N)=O)NC(=O)[C@H](CS)NC(=O)[C@@H]1CCCN1C(=O)[C@H](CCCCN)NC(=O)[C@@H](NC(=O)[C@@H](N)Cc1ccc(O)cc1)[C@@H](C)O)C(C)C)C(=O)N[C@@H](CC(N)=O)C(=O)NCC(=O)N[C@@H](Cc1ccccc1)C(=O)N[C@@H](CS)C(=O)N[C@@H](CCCCN)C(=O)N[C@@H](CS)C(=O)N[C@H](C(=O)N[C@@H](CCCNC(=N)N)C(=O)O)C(C)C [NVPM11] (H-YTKPCQSDKDCKKFACRKPKVPKCINGFCKCVR-OH; N-terminus and C-terminus assumed)
anti-Botrytis activities relative to NCR13a: improved anti-Botrytis activities relative to NCR13a
Activity ratio to NCR13a: 1.77

CC[C@H](C)[C@H](NC(=O)[C@H](CS)NC(=O)[C@H](CCCCN)NC(=O)[C@@H]1CCCN1C(=O)[C@@H](NC(=O)[C@H](CCCCN)NC(=O)[C@@H]1CCCN1C(=O)[C@H](CCCCN)NC(=O)[C@H](CCCNC(=N)N)NC(=O)[C@H](CS)NC(=O)[C@H](C)NC(=O)[C@H](Cc1ccccc1)NC(=O)[C@H](CCCCN)NC(=O)[C@H](CCCCN)NC(=O)[C@H](CS)NC(=O)[C@H](CC(=O)O)NC(=O)[C@H](CCCCN)NC(=O)[C@H](CC(=O)O)NC(=O)[C@H](CO)NC(=O)[C@H](CCC(N)=O)NC(=O)[C@H](CS)NC(=O)[C@@H]1CCCN1C(=O)[C@H](CCCCN)NC(=O)[C@@H](NC(=O)[C@@H](N)CC(=O)O)[C@@H](C)O)C(C)C)C(=O)N[C@@H](CC(N)=O)C(=O)NCC(=O)N[C@@H](Cc1ccccc1)C(=O)N[C@@H](CS)C(=O)N[C@@H](CCCCN)C(=O)N[C@@H](CS)C(=O)N[C@H](C(=O)N[C@@H](CCCNC(=N)N)C(=O)O)C(C)C [NVPM14] (H-DTKPCQSDKDCKKFACRKPKVPKCINGFCKCVR-OH; N-terminus and C-terminus assumed)
anti-Botrytis activities relative to NCR13a: improved anti-Botrytis activities relative to NCR13a
Activity ratio to NCR13a: 1.61

CC[C@H](C)[C@H](NC(=O)[C@H](CS)NC(=O)[C@H](CCCCN)NC(=O)[C@@H]1CCCN1C(=O)[C@@H](NC(=O)[C@H](CCCCN)NC(=O)[C@@H]1CCCN1C(=O)[C@H](CCCCN)NC(=O)[C@H](CCCNC(=N)N)NC(=O)[C@H](CS)NC(=O)[C@H](C)NC(=O)[C@H](Cc1ccccc1)NC(=O)[C@H](CCCCN)NC(=O)[C@H](CCCCN)NC(=O)[C@H](CS)NC(=O)[C@H](CC(=O)O)NC(=O)[C@H](CCCCN)NC(=O)[C@H](CC(=O)O)NC(=O)[C@H](CO)NC(=O)[C@H](CCC(N)=O)NC(=O)[C@H](CS)NC(=O)[C@@H]1CCCN1C(=O)[C@H](CCCCN)NC(=O)[C@@H](NC(=O)[C@@H](N)CCC(=O)O)[C@@H](C)O)C(C)C)C(=O)N[C@@H](CC(N)=O)C(=O)NCC(=O)N[C@@H](Cc1ccccc1)C(=O)N[C@@H](CS)C(=O)N[C@@H](CCCCN)C(=O)N[C@@H](CS)C(=O)N[C@H](C(=O)N[C@@H](CCCNC(=N)N)C(=O)O)C(C)C [NVPM15] (H-ETKPCQSDKDCKKFACRKPKVPKCINGFCKCVR-OH; N-terminus and C-terminus assumed)
anti-Botrytis activities relative to NCR13a: improved anti-Botrytis activities relative to NCR13a
Activity ratio to NCR13a: 1.43
